Laboratory results from patent publication US4818441A, “Quinine derivatines” (Takeda Chemical Industries, Ltd., priority 1979, dated 1989).

Assays:
Rat liver lysosome = test: Lysosomal membrane stabilizing activity (release of β-glucuronidase and acid phosphatase); assay type: biochemical; settings: 37° C., 90 minutes
Description: (1) Rat liver lysosome was incubated at 37° C. for 90 minutes and the activities of β-glucuronidase and acid phosphatase released from the lysosome due to instabilization of the membrane during that time were assayed and compared with the results obtained in the absence of the test compound. The test compound was added as dissolved in dimethylformamide.

[1] = test system: beef heart muscle phosphodiesterase; test: Phosphodiesterase inhibitory activity; assay type: biochemical; settings: 1 mM
Description: Since lysosomal membrane-stabilizing activity is developed through adenosine-[…]-cyclic monophosphate (c-AMP) of tissue cells, the action of compound (I) on c-AMP phosphodiesterase, the c-AMP decomposing enzyme, was investigated. […] Therefore, it was confirmed, if only from this fact, that the compound according to this invention has a membrane-stabilizing activity.
(2) The rate of decomposition of adenosine-[…]-cyclic phosphate by beef heart muscle phosphodiesterase was compared with the rate found in the absence of the test compound.

[2] = test system: ubiquinone-deficient enzyme preparation from beef heart mitochondria (succinate oxidase); test: Electron transport activity (succinate oxidase activity of ubiquinone-deficient enzyme preparation); assay type: biochemical; settings: level of addition 5 n mole; control 7.1 ± 2.8
Description: Thus, the compound of this invention was added to a ubiquinone-deficient enzyme preparation made from beef heart mitochondria and the electron transport activity was investigated by assaying the succinate oxidase activity.
*The ubiquinonedeficient enzyme preparation was prepared from beef heart
mitochondria in accordance with the method of Lester and Fleischer
(Biochem. Biophys. Acta, 47, 358, 1961). The electron transport activity
was investigated by assaying the succinate oxidase activity.
**The composition of the reaction system (2 ml) was as follows. 0.2 M
sucrose, 10 mM TrisHCl (pH 7.4), 20 mM KCl, 3 mM MgCl2, […]
2Na, enzyme protein 1.99 mg, 50 μM potassium succinate, cytochrome C
0.2 mg. 1% Nikkol OP10 (produced by Nikko Chemicals Co. Ltd.) 5 μl
(control group) or 5 μl of a 1 mM solution of the test compound in 1%
Nikkol OP10. The oxygen consumption of this solution was measured with an
oxygen electrode device (Gilson Medical Electronics' Inc.).

[3] = test system: rats with spontaneous hypertension (Ta:SHR); test: Blood pressure of Ta:SHR, incorporated in feed; assay type: in vivo, rat; settings: 6-16 mg/kg/day in feed, mean ± standard error
Description: (§1) Thus, 21-week rats with spontaneous hypertension (Ta:SHR) were organized into groups of 8 to 10 individuals each, and one of the present compounds, i.e. 6-(6-hydroxy-3-methyl-3-hexenyl)-2,3-dimethoxy-5-methyl-1,4-benzoquinone (formula (I) wherein R:H3 CO, n:O, R2 :H, R1 :(CH2)3 OH, α β:double bond), and, as controls, ubiquinone homologs (ubiquinone-7 and ubiquinone-10) were each administered by oral gavage in doses of 10 mg/kg/day for 2 weeks (except on Sunday) or administered as incorporated in feed at the rate of 6 to 16 mg/kg/day for 4 weeks. Blood pressures were measured every week, and as for the oral gavage administration group, the blood was withdrawn from the abdominal aorta at the end of the administration period while each animal was kept under anesthesia with pentobarbital sodium (30 mg/kg, intraperitoneal). Then, the kidneys, liver, heart and adrenals were enucleated and weighed. At two weeks in the case of the oral gavage administration group (Table 3) or during week-1 through week-4 in the case of the feed incorporation group (Table 4), antihypertensive effects were observed. […] Since it is generally acknowledged that, in the case of ubiquinone homologs, such hypotensive effects are attributable to a depression of the ubiquinone (Q) deficiency in mitochondria, the degree of Q deficiency of heart mitochondria was investigated in 6 cases showing blood pressures over 230 mmHg in the control group and 6 cases showing blood pressures under 212 mmHg in the group dosed with the present compound.

[4] = test system: rats with spontaneous hypertension (Ta:SHR); test: Blood pressure of Ta:SHR, oral gavage; assay type: in vivo, rat; settings: 10 mg/kg/day oral gavage, mean ± standard error
Description: as §1

[5] = test system: isolated guinea pig trachea; test: Tracheal muscle relaxant activity; settings: Cavia porcellus, relaxant effect of noradrenaline taken as 100, read-out: Tracheal muscle relaxant action; for Emax at 30 µg/mL: 3 × 10^-5 g/ml; for Emax at 100 µg/mL: 10^-4 g/ml
Description: Thus, the isolated guinea pig trachea was cut into a strip in accordance with the method of Kiyomoto et al. [Yamaura Y. ed. "Zensoku (Asthma)", Kodansha, Tokyo, p. 152, 1974 (Japanese language)], set up in a Magnus device and kept at constant contraction with potassium chloride solution five times the concentration of Tyrode solution. Under the above conditions, a solution of the drug in DMF was added and the muscle relaxant effect was recorded on a kymograph.
^(1) With the relaxant effect of noradrenaline being taken as 100.

SMILES | Action on phosphodiesterase % Inhibition [1] [%] | % Inhibition on release of acid phosphatase (Rat liver lysosome; 2 × 10^-4 M) [%] | % Inhibition on release of β-Glucuronidase (Rat liver lysosome; 2 × 10^-4 M) [%] | other results
CC(=CCC1=C(C)C(=O)c2ccccc2C1=O)CCC=C(C)CCC(C)(C)O [drawing 20 R#2] | 29 | – | – | % Inhibition on release of acid phosphatase (Rat liver lysosome; 2 × 10^-5 M): 9%; % Inhibition on release of β-Glucuronidase (Rat liver lysosome; 2 × 10^-5 M): 18%
COC1=C(OC)C(=O)C(CCC(C)CO)=C(C)C1=O (centres unmarked) [drawing 25] | – | – | – | Succinate oxidase activity [oxygen consumption] [2]: 12.5 (n atoms oxygen) min. per mg p
CC(=CCC1=C(C)C(=O)C(C)=C(C)C1=O)CCC=C(C)CCC(C)(C)O [drawing 20 R#1] | 18 | 16 | 20 | –
COC1=C(OC)C(=O)C(CCC(C)CO)=C(C)C1=O (centres unmarked) [drawing 19 R: H3 CO] | 38 | 43 | 38 | –
COC1=C(OC)C(=O)C(C/C=C(\C)CCCO)=C(C)C1=O [drawing 24] | – | – | – | Succinate oxidase activity [oxygen consumption] [2]: 18.2 (n atoms oxygen) min. per mg p
COC1=C(OC)C(=O)C(CC(O)C(C)C(=O)O)=C(C)C1=O (centres unmarked) [drawing 11 R#1] | 60 | 49 | 18 | –
COC1=C(OC)C(=O)C(C/C=C(\C)C(=O)O)=C(C)C1=O [drawing 13 R#1] | 47 | 44 | 36 | –
COC1=C(OC)C(=O)C(C/C=C(\C)CC/C=C(\C)CO)=C(C)C1=O | – | – | – | Succinate oxidase activity [oxygen consumption] [2]: 35.5 ± 3.5 (n atoms oxygen) min. per mg p
CC1=C(C)C(=O)C(C/C=C(\C)C(=O)O)=C(C)C1=O [drawing 13 R#2] | 42 | 40 | 36 | –
CC1=C(C)C(=O)C(C/C=C(\C)CCCO)=C(C)C1=O [drawing 17 R#2] | 53 | – | – | % Inhibition on release of acid phosphatase (Rat liver lysosome; 2 × 10^-5 M): 34%; % Inhibition on release of β-Glucuronidase (Rat liver lysosome; 2 × 10^-5 M): 23%
COC1=C(OC)C(=O)C(C/C=C(\C)CC/C=C(\C)CC/C=C(\C)CC/C=C(\C)CC/C=C(\C)CC/C=C(\C)CC/C=C(\C)CC/C=C(\C)CC/C=C(\C)CCC=C(C)C)=C(C)C1=O [Ubiquinone-10, ubiquinone-10] | – | – | – | Blood pressure ([3]; week 0): 206 ± 16 mmHg; Blood pressure ([3]; week 1): 191 ± 14 mmHg; Blood pressure ([3]; week 2): 187 ± 10 mmHg; Blood pressure ([3]; week 3): 199 ± 17 mmHg; Blood pressure ([3]; week 4): 205 ± 13 mmHg
CC1=C(C)C(=O)C(C/C=C(\C)CO)=C(C)C1=O [drawing 15 R#1] | 41 | 32 | 37 | –
COC1=C(OC)C(=O)C(C/C=C(\C)CCCO)=C(C)C1=O [drawing 17 R#1] | 84 | 37 | 28 | –
CC1=C(CC(O)C(C)C(=O)O)C(=O)c2ccccc2C1=O (centres unmarked) [drawing 11 R#3] | 40 | 35 | 15 | –
CC1=C(C)C(=O)C(CC(O)C(C)C(=O)O)=C(C)C1=O (centres unmarked) [drawing 11 R#2] | 20 | 48 | 29 | –
COC1=C(OC)C(=O)C(C/C=C(\C)CC/C=C(\C)CC/C=C(\C)CC/C=C(\C)CC/C=C(\C)CC/C=C(\C)CCC=C(C)C)=C(C)C1=O [Ubiquinone-7, ubiquinone-7, reference compound] | – | – | – | Blood pressure ([4]; week 0): 199 ± 9 mmHg; Blood pressure ([4]; week 1): 204 ± 9 mmHg; Blood pressure ([4]; week 2): 206 ± 11 mmHg
Cn1c(=O)c2[nH]cnc2n(C)c1=O [theophylline, reference compound] | 32 | – | – | Emax at 30 µg/mL [5]: 60.4%; Emax at 100 µg/mL [5]: 93%
CC1=C(C/C=C(\C)CCCO)C(=O)c2ccccc2C1=O [drawing 17 R#3] | – | – | – | % Inhibition on release of acid phosphatase (Rat liver lysosome; 2 × 10^-5 M): 36%; % Inhibition on release of β-Glucuronidase (Rat liver lysosome; 2 × 10^-5 M): 25%
COC1=C(OC)C(=O)C(C/C=C(\C)CC/C=C(\C)CC/C=C(\C)CO)=C(C)C1=O | – | – | – | Succinate oxidase activity [oxygen consumption] [2]: 42.4 ± 6.3 (n atoms oxygen) min. per mg p
COC1=C(OC)C(=O)C(CC=C(C)CCCC(C)(C)O)=C(C)C1=O | – | – | – | Succinate oxidase activity [oxygen consumption] [2]: 21.4 (n atoms oxygen) min. per mg p
CC1=C(C)C(=O)C(C/C=C(\C)CCCO)=C(C)C1=O [drawing 28 R: H3 C] | – | – | – | Emax at 30 µg/mL [5]: 67%; Emax at 100 µg/mL [5]: 100%
CC1=C(C)C(=O)C(CCC(C)CO)=C(C)C1=O (centres unmarked) [drawing 19 R: H3 C] | 44 | 21 | 29 | –
COC1=C(OC)C(=O)C(C/C=C(\C)CCCO)=C(C)C1=O [drawing 28 R: H3 CO] | – | – | – | Emax at 30 µg/mL [5]: 85.5%; Emax at 100 µg/mL [5]: 100%
CC1=C(C/C=C(\C)C(=O)O)C(=O)c2ccccc2C1=O [drawing 13 R#3] | 86 | – | – | –
CC1=C(C/C=C(\C)CO)C(=O)c2ccccc2C1=O [drawing 15 R#2] | 55 | 39 | 37 | –
